# Reference: US8278072B1, “Method for synthesis of sialylated products using reversible sialylation” (Health Research, Inc., priority 2007, dated 2012)
# Key:
# ST3Gal-II [1] = molecular target: T1, ST3Gal-II (Rattus norvegicus, UniProt Q11205); experiment: Reverse sialylation: transfer of [9-3H]NeuAc from sialylated donor to nucleotide phosphates (WGA-agarose); format: biochemical; details: donor [1]; for Incorporation of [9-3H]NeuAc expressed as percent of the CPM incorporated into 5′-CMP: nucleotide phosphate 1 mM as acceptor
# T1 construct: purchased Calbiochem
# T1 sequence (Q11205 1-350): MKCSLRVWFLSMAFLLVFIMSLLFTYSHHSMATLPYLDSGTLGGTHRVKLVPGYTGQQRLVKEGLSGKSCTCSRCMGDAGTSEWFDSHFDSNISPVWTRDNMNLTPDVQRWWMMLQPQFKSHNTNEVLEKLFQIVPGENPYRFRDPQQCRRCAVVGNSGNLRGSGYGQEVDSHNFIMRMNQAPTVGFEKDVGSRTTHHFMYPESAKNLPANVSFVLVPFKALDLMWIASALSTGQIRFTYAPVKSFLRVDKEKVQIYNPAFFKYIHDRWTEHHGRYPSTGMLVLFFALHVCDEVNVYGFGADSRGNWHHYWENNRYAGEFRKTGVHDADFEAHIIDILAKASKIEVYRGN
# Procedure: FIG. 1. Nucleotide phosphates as acceptors of radioactivity from [9-^3H]NeuAcα2,3Galβ,13 (GlcNAcβ1,6)GalNAcα-O—Al (Al=Allyl) [[9-^3H] [1]] in the presence of ST3Gal-II (scheme-I). Reaction mixtures (RM) with the following composition were incubated at 37° C. for 21 hours in 100 mM NaCa Codylate buffer, pH6.0: i) RM containing 150 μM (0.4 μCi) [[9-^3H] [1]] (donor) along with 0.8 mU ST3Gal-II but no 5″-CMP; and, ii) RM containing [[9-^3H] [1]] and 1.0 mM 5′-CMP, along with ST3Gal-II. Products formed were fractionated on a WGA-agarose column. […] The feasibility of the reverse reaction is well established in literature. Schematic symbols: ♦:sialic acid, ●:Gal, □:GalNAc, ▪:GlcNAc.
# All enzymatic sialylation reactions were typically carried out in 100 mM NaCa Codylate buffer pH6.0 in the presence of enzyme, synthetic acceptor (at 7.5 mM or as indicated in each experiment) and 0.2 μCi CMP-[9-^3H]NeuAc (NEN-Dupont, 29 mCi/μmol). The concentration of total CMP-NeuAc was adjusted in individual reactions by supplementing with additional cold CMP-NeuAc. Reaction volume was 20 μl. Products formed were separated using four different chromatography procedures (below). In all cases, the radioactive content of isolated products was determined by using 3a70 scintillation cocktail (Research Products International, Mount Prospect, Ill.), and a Beckman LS6500 scintillation counter.
# a) Biogel P2 chromatography: A Biogel P2 column (Fine Mesh; 1.0×116.0 cm) was used with 0.1 M pyridine acetate (pH5.4) as the eluent at room temperature. […] Fractions of 1.0 ml were collected. The bound material was then eluted with 0.5M GlcNAc or 0.2M Gal in the same buffer. […] Calculation of equilibrium constant, Keq: Equilibrium constant was calculated for selected reversible bimolecular reactions that are denoted by:
# Cloned and purified rat sialyltransferase α2,3(O)ST (ST3Gal-II) is used in many experiments presented in this manuscript. […] In order to determine if the sialylation reaction is reversible (FIG. 1), [9-^3H]NeuAcα2,3Galβ,13(GlcNAcβ1,6)GalNAcα-O—Al (Al=Allyl) [9-^3H[1]] was prepared using ST3Gal-II in the presence of CMP-[9-^3H]NeuAc and the trisaccharide acceptor Galβ1,3(GlcNAcβ1,6)GalNAcα-O—Al, and the radiolabeled product was isolated using Biogel P2 chromatography. […] Two different reaction mixtures were then prepared with: i) [9-^3H[1]] and ST3Gal-II but without 5″-CMP; and ii) [9-^3H[1]] and 5″-CMP along with ST3Gal-II.
# ST3Gal-II [2] = molecular target: T1, ST3Gal-II; experiment: Reverse sialylation by ST3Gal-II in presence of citrate or 5′-nucleotides; format: biochemical; details: 0.2 mM [3], 7 mM 5′-CMP, no [5], Dowex-1 Formate
# Procedure: FIG. 5. Effect of 5′-nucleotides on direct sialyltransferase activity (panel a) and reverse sialylation (panel b). a. Varying concentrations of 5′-CDP or 5′-CMP were added to 100 mM acceptor (specified below), 0.15 mM CMP-[9-^3H]NeuAc and either ST3Gal-II (0.2 mU), ST3Gal-III (0.5 mU) or ST6Gal-I (0.2 mU) for 4 h at 37° C. Products were separated using Sep-Pak C18 method. ST3Gal-III activity was measured using acceptor 4-O-MeGalβ1,4GlcNAcβ-O-Bn in the presence of 5′-CDP (●) and 5′-CMP (◯). ST6Gal-I activity was measured using Gal β1,4GlcNAcβ-O-Bn in the presence of 5′-CDP (▴) and 5′-CMP (Δ). ST3Gal-II using D-Fucβ1,3GalNAcα-O-Bn in the presence of 5′-CDP (▪) and 5′-CMP (□). b) Reverse sialylation by ST3Gal-II was measured in reaction mixtures containing 0.2 mM [9-^3H] [3], 7 mM 5′-CMP, ST3Gal-II (2 mU), D-Fucβ1,3GalNAcα-OBn (3.0 mM) and varying doses of either 5′-CDP (▴), 5′-UMP (◯) or 2-deoxy 5′-CMP (●) for 4 hours at 37° C. Reaction product ([9-^3H]NeuAcα2,3DFucβ1,3 GalNAcα-O-Bn) was isolated using Sep-Pak C18 method. In some runs, where was absent, the amount of CMP-NeuAc produced was quantified using the Dowex-1 Formate method in the presence of varying doses of 5′-CDP (▪).
# Besides pH other distinctions were also observed between forward and reverse sialylation. In this regard, citrate ions tended to inhibit forward sialylation but not reverse sialylation activity (Table V). For these studies, the effect of citrate on the forward sialylation activity of ST3Gal-I, ST3Gal-II, ST3Gal-III and ST6Gal-I was examined. Reverse sialylation activity of ST3Gal-II was also measured in terms of: i) the formation of CMP-NeuAc from 5′-CMP; and ii) the transfer of NeuAc from this newly synthesized CMP-NeuAc to another O-glycan. From the data (Table V), it is evident that citrate inhibits the direct sialylation activity of all the enzymes mentioned above. However, both the synthesis of CMP-[9-^3H]NeuAc from 5′-CMP as well as the synthesis of [9-^3H]NeuAcα2,3D-Fucβ1,3 GalNAcα-O-Bn using the newly formed CMP-[9-^3H]NeuAc through reverse sialylation of ST3Gal-II was not inhibited by citrate.
# The effect of 5′-nucleotides on forward sialylation (FIG. 5a) and reverse sialylation (FIG. 5b) were examined. […] The overall formation of [9-^3H]NeuAcα2,3D-Fucβ1,3 GalNAcα-O-Bn by the two-step reverse sialylation process, however, was inhibited by 5′-CDP and this is consistent with the finding that 5′-CDP inhibits forward sialylation in the second step.
Compound,Incorporation of [9-3H]NeuAc (ST3Gal-II [1]; 1 mM nucleotide phosphate),Incorporation of [9-3H]NeuAc expressed as percent of the CPM incorporated into 5′-CMP (ST3Gal-II [1]) [%],Effect on first step of reverse sialylation (formation of CMP-[9-3H]NeuAc from 5′-CMP) (ST3Gal-II [2])
"Nc1ccn([C@@H]2O[C@H](COP(=O)(O)O)[C@@H](O)[C@H]2O)c(=O)n1 [5′-CMP, Cytidine 5′-monophosphate]",(44197 CPM),100.0,
Nc1ccn([C@@H]2O[C@H](COP(=O)(O)OP(=O)(O)O)[C@@H](O)[C@H]2O)c(=O)n1 [5′-CDP],,28.4,did not inhibit
